“Also recorded” adds a separate entry of the source.
What was measured:
[1] = tested on: SH-SY5Y cells; assay type: cell-based; conditions: for protection against 6-OHDA compared with porphyrins 1P-Fe and 2P-Mn / 6-OHDA-induced cytotoxicity (MTT, cell death ELISA) / cell mortality, morphology and apoptotic nuclei (GAP-43 immunofluorescence, TUNEL, DAPI): 20 μM; for protection against 6-OHDA compared with porphyrins 1P-Fe and 2P-Mn: 6-OHDA 40 μM, immunofluorescence; for 6-OHDA-induced cytotoxicity (MTT, cell death ELISA) / cell mortality, morphology and apoptotic nuclei (GAP-43 immunofluorescence, TUNEL, DAPI): 30 min before 6-OHDA (40 μM)
Experimental: SH-SY5Y cells were cultured in DMEM-Eagle/F-12(HAM) (1:1) containing 10% FCS. Cells were resuspended in medium containing 2% FCS, seeded in microtiter plates (96 wells) and allowed to attach for 24 h. To examine the neuroprotective effect, cells were pretreated for 30 min with corroles 1C-Fe and 5C-Fe (1-20 μM), and were then exposed to 6-OHDA (60 μM) for further 24 h. For neurorescue assessment, SH-SY5Y cells were first treated with 6-OHDA (60 μM) for 0.5 h, 1.5 h, 3 h and 6 h followed by the addition of compounds 1C-Fe and 5C-Fe (10 μM) for further 24 h.
SH-SY5Y cells were pretreated with or without corroles 1C-Fe, 2C-Mn and 3C-Mn and porphyrins 1P-Fe and 2P-Mn (20 μM), 30 min before exposure to 6-OHDA (40 μM) for a subsequent 24 h period. Cell viability was evaluated by MTT test and cell death was assessed using the apoptotic cell death detection ELISA kit. For neurorescue, SH-SY5Y cells were first exposed to 40 μM 6-OHDA for 0.5. 1, 1.5 and 3 h, followed by the addition of the compounds 1C-Fe, 2C-Mn and 3C-Mn (20 μM) and incubated for further 24 h. Growth-associated protein (GAP-43) was detected by fluorescence microscopy using a specific primary antibody. Apoptotic nuclei were determined by terminal deoxynucleotidyl transferase-mediated UTP-digoxigenin nick end labeling analysis. 4′,6-Diamidino-2-phenylnidole (DAPI) staining was applied for nuclear labeling. […]

[2] = tested on: RIN-m cells; assay: Protection of RIN-m cells against SIN-1 toxicity (MTT); assay type: cell-based, rat; conditions: 24 h; for protective effect against SIN-1 induced toxicity (MTT), comparative: 0.1-20 μM, 30 min before SIN-1 (800 μM)
Experimental: INS-1E cells or RIN-m cells were cultured in RPMI with low serum content (2% FCS), placed in microtiter plates (96 wells) at a density of 2.5×10^4 cells/well and allowed to attach for 24 h before treatment. Corroles 1C-Fe and 5C-Fe (10 μM) were added 30 min prior to insult with the nitric oxide donor SIN-1 (500 or 600 μM) for a subsequent 24 h period. Cell viability was evaluated by a colorimetric assay for mitochondrial function using 3-(4,5-dimethylthiazol-2-yl)-2,5-diphenyltetrazolium bromide (MTT test), and expressed as percentage of untreated control. Values higher than 100% reflect increased mitochondrial activity induced by the drug. The results represent the mean±SEM of three independent experiments performed under the same conditions.
Insulin-secreting RIN-m cells were incubated in RPMI with low serum content (2% FCS) and placed in microtiter plates (96 wells) at a density of 2.5×10^4 cells/well and allowed to attach for 24 h before treatment. Cells were treated with corroles 1C-Fe, 1C-Mn or 2C-Mn or porphyrins 1P-Fe or 2P-Mn, in various concentrations (0.1-20 μM), for 30 min prior to insult with SIN-1 (800 μM) for a subsequent 24 h period. Cell viability was evaluated by MTT test and expressed as percentage of untreated control.

[3] = tested on: INS-1E cells; assay: Protection of INS-1E beta cells against H2O2 toxicity; assay type: cell-based, rat; conditions: 20 and 50 μM, 30 min before increasing H2O2 concentrations, 24 h
Experimental: Two insulin-secreting beta cell lines, rat insulinoma (INS-1E) and RIN-m cells, were used to examine the protective effect of corrole 1C-Fe. The cells were cultured at 37° C., in a humid 5% CO2, 95% air environment in regular RPMI-1640 medium (Invitrogen) supplemented with 5% fetal calf serum (FCS).
After 2 days of culture, INS-1E cells (5×10^4 cells/well in 96-well plates) were treated with corrole 1C-Fe (20 and 50 μM) added 30 minutes prior to treatment with increasing concentrations of H2O2 and then further incubated for 24 h.

[4] = tested on: NSC-34 G93A cells; assay: Cell culture model of familial ALS, NSC-34 cells expressing mutant G93A-SOD1; assay type: cell-based, mouse; conditions: 48 h induction; even at a concentration as low as 0.5 μM
Experimental: Mutant-superoxide dismutase (G93A-SOD1) is associated with familial amyotrophic lateral sclerosis (FALS). A cell culture model of FALS was implemented by stably transfecting mouse motoneuronal NSC-34 cells or SH-SY5Y cells, to express mutant G93A-SOD1 at levels approximating those seen in the human disease. NSC-34 cells or SH-SY5Y cells were incubated in Dulbecco's modified Eagle's/F-12 medium supplemented with 10% FCS tetracycline-free (FCS Tet-free; Clontech), at 37° C. in an atmosphere of 5% CO2 in air. These cell lines are stably transfected with the pTet-ON plasmid (Clontech, Palo Alto, Calif.) coding for the reverse tetracycline controlled transactivator (rtTA). Induction of mutant SOD1 expression was obtained by shifting nonconfluent cultures into growth medium containing 1% N2 supplement (Invitrogen, Carlsbad, Calif.) and […] doxocyclin for 48 h in the presence or absence of corrole 1C-Fe and 5C-Fe.

[5] = molecular target: albumin (Homo sapiens, UniProt P02768); assay: Binding of corrole complexes to albumin; conditions: preliminary experiments
Chain of albumin (P02768 25-609): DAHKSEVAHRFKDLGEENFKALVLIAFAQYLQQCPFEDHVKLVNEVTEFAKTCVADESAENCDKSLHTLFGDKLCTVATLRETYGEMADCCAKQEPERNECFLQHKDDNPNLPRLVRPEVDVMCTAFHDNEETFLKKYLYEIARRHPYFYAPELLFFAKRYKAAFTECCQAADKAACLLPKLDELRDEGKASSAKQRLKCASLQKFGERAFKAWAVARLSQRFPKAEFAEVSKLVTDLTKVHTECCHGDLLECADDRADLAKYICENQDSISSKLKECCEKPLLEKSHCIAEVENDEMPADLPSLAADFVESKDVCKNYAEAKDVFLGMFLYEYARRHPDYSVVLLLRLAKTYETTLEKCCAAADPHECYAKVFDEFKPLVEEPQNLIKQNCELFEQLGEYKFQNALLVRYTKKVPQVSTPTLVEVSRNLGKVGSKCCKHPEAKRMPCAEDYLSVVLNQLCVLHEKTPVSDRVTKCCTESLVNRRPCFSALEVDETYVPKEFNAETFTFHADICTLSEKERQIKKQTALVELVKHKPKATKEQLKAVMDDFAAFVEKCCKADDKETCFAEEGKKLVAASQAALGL
Text: Issues regarding biodistribution, transport mechanisms, accumulation in specific organs, and the eventual elimination of administered compounds are among the prime concerns when it comes to real life utilization of potential drugs. This can be addressed by several and quite different means, including in vitro, in vivo and ex-vivo examinations. One way to predict distribution is via examination of the binding of the corroles to circulating proteins that might act as transporters, similar to experiment performed previously by the inventors with metal complexes of corrole 1C (Scheme 1), which spontaneously form tightly bound non-covalent bioconjugates with HDL (Haber et al., 2007), albumin (Mahammed et al., 2004), and transferrin (Haber and Gross. 2007) (listed in increasing order of affinity), as well as with semi-synthetic proteins (Agadjanian et al., 2006). […] A more direct approach relies on the strong fluorescence of corroles that are not chelated by transition metals (no metal such as in corroles 1C and 2C, or using corrole Ga/Al complexes such as 1C-Ga). This feature is used for testing cell entry via confocal microscopy (Agadjanian et al., 2006), without the need of attaching a fluorescent tag. Furthermore, it may even be used for whole animal imaging purposes, as shown in Example 4 hereinabove. […]

Row | Structure (SMILES) | protection against 6-OHDA compared with porphyrins 1P-Fe and 2P-Mn [1] | 6-OHDA-induced cytotoxicity (MTT, cell death ELISA) ([1]; 24 h) | cell mortality, morphology and apoptotic nuclei (GAP-43 immunofluorescence, TUNEL, DAPI) ([1]; 24 h) | neuroprotective effect against 6-OHDA-induced toxicity ([1]; 1-20 μM, 30 min before 6-OHDA (60 μM), 24 h) | neurorescue after 6-OHDA insult ([1]; 6-OHDA (60 μM) for 0.5, 1.5, 3 and 6 h, then 10 μM, 24 h) | protective effect against SIN-1 induced toxicity (MTT) ([2]; 10 μM, 30 min before SIN-1 (500 or 600 μM)) | protective effect against SIN-1 induced toxicity (MTT), comparative [2] | protective effect against H2O2 toxicity [3] | cell viability of induced mutant cells [4] | binding to albumin [5]
1 | O=S(=O)(O)c1cc2[n]3c1C(c1c(F)c(F)c(F)c(F)c1F)=C1C=CC4=[N+]1[Fe-]31[n]3c(cc(S(=O)(=O)O)c3-2)C(c2c(F)c(F)c(F)c(F)c2F)=c2ccc([n]21)=C4c1c(F)c(F)c(F)c(F)c1F (centres unmarked) [1C-Fe, 2,17-bis(sulfonato)-5,10,15-tris(pentafluorophenyl)-corrolato iron(III)] | remarkable superiority over the porphyrins | significantly attenuated 6-OHDA-induced cytotoxicity | significantly attenuated 6-OHDA-induced cell mortality, improved cell morphology and reduced the number of apoptotic nuclei | dose-dependent neuroprotective effect | instigated neurorescue | marked protective effect | successful; also recorded: exhibits a greater protective effect | significant protective effect | significantly improved cell viability | 
2 | C[n+]1ccc(C2=C3C=CC4=[N+]3[Mn-]35[n]6c2ccc6-c2ccc([n]23)C(c2cc[n+](C)cc2)=c2ccc([n]25)=C4c2c(F)c(F)c(F)c(F)c2F)cc1.[I-].[I-] (centres unmarked) [2C-Mn, 5,15-bis(4-N-methyl-pyridilium)-10-pentafluorophenyl-corrolato manganese(III) diiodide salt] | remarkable superiority over the porphyrins | significantly attenuated 6-OHDA-induced cytotoxicity | significantly attenuated 6-OHDA-induced cell mortality, improved cell morphology and reduced the number of apoptotic nuclei |  |  |  | successful; also recorded: unequivocally in favor of the former; also recorded: improved protective effect |  |  | do not bind to albumin

— patent publication US20140045809A1, “CORROLES FOR NEUROPROTECTION AND NEURORESCUE” (priority 2008, published 2014)
